Results published in patent publication US6355799B1, “Substituted benzene compounds, process for their preparation, and herbicidal and defoliant compositions containing them” (ISK Americas Incorporated, priority 1997, dated 2002).

Legend:
Type in all cases: in vivo
[1] = test system: barnyardgrass (Echinochloa crus-galli, ECHCG); assay: Post-emerge test, greenhouse herbicide activity screening; settings: Echinochloa crus-galli, post-emergence, 336 h, post-emerge, phytotoxicity rating 0-100 at 14 days after application, read-out: Post-emerge Herbicidal Activity ECHCG; for pest or weed control at 63 g/ha: 63 g ai/ha; for pest or weed control at 250 g/ha: 250 g ai/ha
Procedure, shortened: (§1)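 Fourteen days after spraying, crop and weed injury was graded visually from 0, no effect, to 100, every plant dead. Test substances were dissolved in acetone and applied at 15–1000 g ai/ha with a flat-fan nozzle. Application was either pre-emergence, one day after sowing, or post-emergence at the 2–3 leaf stage.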

[2] = test system: green foxtail (Setaria viridis, SETVI); assay: as above; settings: Setaria viridis, post-emergence, 336 h, post-emerge, phytotoxicity rating 0-100 at 14 days after application, read-out: Post-emerge Herbicidal Activity SETVI; for pest or weed control at 63 g/ha: 63 g ai/ha; for pest or weed control at 250 g/ha: 250 g ai/ha
Procedure, shortened: as §1

[3] = test system: lambsquarters (Chenopodium album, CHEAL); assay: as above; settings: Chenopodium album, post-emergence, 336 h, post-emerge, phytotoxicity rating 0-100 at 14 days after application, read-out: Post-emerge Herbicidal Activity CHEAL; for pest or weed control at 63 g/ha: 63 g ai/ha; for pest or weed control at 250 g/ha: 250 g ai/ha
Procedure, shortened: as §1

[4] = test system: velvetleaf (Abutilon theophrasti, ABUTH); assay: as above; settings: Abutilon theophrasti, post-emergence, 336 h, post-emerge, phytotoxicity rating 0-100 at 14 days after application, read-out: Post-emerge Herbicidal Activity ABUTH; for pest or weed control at 63 g/ha: 63 g ai/ha; for pest or weed control at 250 g/ha: 250 g ai/ha
Procedure, shortened: as §1

[5] = test system: johnsongrass (Sorghum halepense, SORHA); assay: as above; settings: Sorghum halepense, post-emergence, 336 h, post-emerge, phytotoxicity rating 0-100 at 14 days after application, read-out: Post-emerge Herbicidal Activity SORHA; for pest or weed control at 63 g/ha: 63 g ai/ha; for pest or weed control at 250 g/ha: 250 g ai/ha
Procedure, shortened: as §1

[6] = test system: sicklepod (Cassia obtusifolia, CASOB); assay: as above; settings: Senna obtusifolia, post-emergence, 336 h, post-emerge, phytotoxicity rating 0-100 at 14 days after application, read-out: Post-emerge Herbicidal Activity CASOB; for pest or weed control at 63 g/ha: 63 g ai/ha; for pest or weed control at 250 g/ha: 250 g ai/ha
Procedure, shortened: as §1

[7] = test system: ivyleaf morningglory (Ipomoea hederacea, IPOHE); assay: as above; settings: Ipomoea, post-emergence, 336 h, post-emerge, phytotoxicity rating 0-100 at 14 days after application, read-out: Post-emerge Herbicidal Activity IPOHE; for pest or weed control at 63 g/ha: 63 g ai/ha; for pest or weed control at 250 g/ha: 250 g ai/ha
Procedure, shortened: as §1

[8] = test system: large crabgrass (Digitaria sanguinalis, DIGSA); assay: Pre-emerge test, greenhouse herbicide activity screening; settings: Digitaria sanguinalis, pre-emergence, 336 h, pre-emerge, phytotoxicity rating 0-100 at 14 days after application, read-out: Pre-emerge Herbicidal Activity DIGSA; for pest or weed control at 63 g/ha: rate 63 g ai/ha; for pest or weed control at 250 g/ha: rate 250 g ai/ha
Procedure, shortened: (§2)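 Compounds in acetone were track-sprayed at 187 l/ha, 15–1000 g ai/ha, onto sandy loam pots. Pre-emerge seeds were sown one day before spraying, with surface watering afterwards. Post-emerge plants were at the 2–3 leaf stage and sprayed with 0.25% v/v non-ionic surfactant. Injury was rated 0–100 at 14 days.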

[9] = test system: barnyardgrass (Echinochloa crus-galli, ECHCG); assay: as above; settings: Echinochloa crus-galli, pre-emergence, 336 h, pre-emerge, phytotoxicity rating 0-100 at 14 days after application, read-out: Pre-emerge Herbicidal Activity ECHCG; for pest or weed control at 63 g/ha: rate 63 g ai/ha; for pest or weed control at 250 g/ha: rate 250 g ai/ha
Procedure, shortened: as §2

[10] = test system: green foxtail (Setaria viridis, SETVI); assay: as above; settings: Setaria viridis, pre-emergence, 336 h, pre-emerge, phytotoxicity rating 0-100 at 14 days after application, read-out: Pre-emerge Herbicidal Activity SETVI; for pest or weed control at 63 g/ha: rate 63 g ai/ha; for pest or weed control at 250 g/ha: rate 250 g ai/ha
Procedure, shortened: as §2

[11] = test system: lambsquarters (Chenopodium album, CHEAL); assay: as above; settings: Chenopodium album, pre-emergence, 336 h, pre-emerge, phytotoxicity rating 0-100 at 14 days after application, read-out: Pre-emerge Herbicidal Activity CHEAL; for pest or weed control at 63 g/ha: rate 63 g ai/ha; for pest or weed control at 250 g/ha: rate 250 g ai/ha
Procedure, shortened: as §2

[12] = test system: velvetleaf (Abutilon theophrasti, ABUTH); assay: as above; settings: Abutilon theophrasti, pre-emergence, 336 h, pre-emerge, phytotoxicity rating 0-100 at 14 days after application, read-out: Pre-emerge Herbicidal Activity ABUTH; for pest or weed control at 63 g/ha: rate 63 g ai/ha; for pest or weed control at 250 g/ha: rate 250 g ai/ha
Procedure, shortened: as §2

[13] = test system: johnsongrass (Sorghum halepense, SORHA); assay: as above; settings: Sorghum halepense, pre-emergence, 336 h, pre-emerge, phytotoxicity rating 0-100 at 14 days after application, read-out: Pre-emerge Herbicidal Activity SORHA; for pest or weed control at 63 g/ha: rate 63 g ai/ha; for pest or weed control at 250 g/ha: rate 250 g ai/ha
Procedure, shortened: as §2

[14] = test system: sicklepod (Cassia obtusifolia, CASOB); assay: as above; settings: Senna obtusifolia, pre-emergence, 336 h, pre-emerge, phytotoxicity rating 0-100 at 14 days after application, read-out: Pre-emerge Herbicidal Activity CASOB; for pest or weed control at 63 g/ha: rate 63 g ai/ha; for pest or weed control at 250 g/ha: rate 250 g ai/ha
Procedure, shortened: as §2

[15] = test system: ivyleaf morningglory (Ipomoea hederacea, IPOHE); assay: as above; settings: Ipomoea, pre-emergence, 336 h, pre-emerge, phytotoxicity rating 0-100 at 14 days after application, read-out: Pre-emerge Herbicidal Activity IPOHE; for pest or weed control at 63 g/ha: rate 63 g ai/ha; for pest or weed control at 250 g/ha: rate 250 g ai/ha
Procedure, shortened: as §2

SMILES | pest or weed control at 63 g/ha [1] [%] | pest or weed control at 250 g/ha [1] [%] | pest or weed control at 63 g/ha [2] [%] | pest or weed control at 250 g/ha [2] [%] | pest or weed control at 63 g/ha [3] [%] | pest or weed control at 250 g/ha [3] [%] | pest or weed control at 63 g/ha [4] [%] | pest or weed control at 250 g/ha [4] [%] | pest or weed control at 63 g/ha [5] [%] | pest or weed control at 250 g/ha [5] [%] | pest or weed control at 63 g/ha [6] [%] | pest or weed control at 250 g/ha [6] [%] | pest or weed control at 63 g/ha [7] [%] | pest or weed control at 250 g/ha [7] [%] | pest or weed control at 63 g/ha [8] [%] | pest or weed control at 250 g/ha [8] [%] | pest or weed control at 63 g/ha [9] [%] | pest or weed control at 250 g/ha [9] [%] | pest or weed control at 63 g/ha [10] [%] | pest or weed control at 250 g/ha [10] [%] | further results
COc1c(Cl)cc(F)c(-c2nn(C)c(C(F)(F)F)c2Cl)c1NC(=O)C=Cc1ccccc1 [Compound 7-15] | 0 | 10 | 10 | 10 | 100 | 100 | 100 | 99 | 0 | 0 | 40 | 80 | 70 | 70 | 0 | 60 | 0 | 10 | 0 | 60 | pest or weed control at 63 g/ha [11]: 100%; pest or weed control at 250 g/ha [11]: 100%; pest or weed control at 63 g/ha [12]: 40%; pest or weed control at 250 g/ha [12]: 90%; pest or weed control at 63 g/ha [13]: 0%; pest or weed control at 250 g/ha [13]: 20%; pest or weed control at 63 g/ha [14]: 0%; pest or weed control at 250 g/ha [14]: 10%; pest or weed control at 63 g/ha [15]: 0%; pest or weed control at 250 g/ha [15]: 50%
Nc1c(O)c(Cl)cc(F)c1N1C(=O)C2=C(CCCC2)C1=O [Compound 8-2, 2-amino-6-chloro-4-fluoro-3-tetrahydrophthalimido)phenol] | 20 | 30 | 40 | 60 | 40 | 80 | 100 | 100 | 10 | 0 | 50 | 30 | 50 | 90 | 0 | 70 | 0 | 40 | 20 | 100 | pest or weed control at 63 g/ha [11]: 80%; pest or weed control at 250 g/ha [11]: 100%; pest or weed control at 63 g/ha [12]: 80%; pest or weed control at 250 g/ha [12]: 100%; pest or weed control at 63 g/ha [13]: 0%; pest or weed control at 250 g/ha [13]: 20%; pest or weed control at 63 g/ha [14]: 0%; pest or weed control at 250 g/ha [14]: 90%; pest or weed control at 63 g/ha [15]: 0%; pest or weed control at 250 g/ha [15]: 0%
CC(C)Oc1c(Cl)cc(F)c(N2C(=O)C3=C(CCCC3)C2=O)c1N [Compound 8-4, N-(2-amino-4-chloro-6-fluoro-3-isopropyloxyphenyl)tetrahydrophthalimide] | 0 | 0 | 0 | 30 | 70 | 90 | 60 | 80 | 0 | 0 | 0 | 10 | 0 | 20 | 20 | 20 | 0 | 0 | 30 | 70 | pest or weed control at 63 g/ha [11]: 80%; pest or weed control at 250 g/ha [11]: 99%; pest or weed control at 63 g/ha [12]: 0%; pest or weed control at 250 g/ha [12]: 90%; pest or weed control at 63 g/ha [13]: 0%; pest or weed control at 250 g/ha [13]: 20%; pest or weed control at 63 g/ha [14]: 0%; pest or weed control at 250 g/ha [14]: 0%; pest or weed control at 63 g/ha [15]: 0%; pest or weed control at 250 g/ha [15]: 0%
